What is called ED50 is the dose at which the effect has come halfway, by size or by number of responders. What is called IC50 is the concentration at which inhibition is half-maximal. For orientation: EC50 means the concentration needed to bring the measured effect to its halfway point.

Series [1] relates to Mus musculus. In words: Antialzheimer activity in po dosed YAC transgenic mouse model assessed as reduction in Abeta42 levels. It is filed as functional.
Series [2] can be described thus: Inhibition of gamma secretase assessed as reduction in Abeta42 production.
Series [3] concerns Mus musculus. In words: Antialzheimer activity in po dosed YAC transgenic mouse model assessed as plasma compound concentration causing reduction in brain Abeta42 levels. It is filed as functional, organism-based.
For series [4], the system named is Mus musculus. In words: Antialzheimer activity in po dosed YAC transgenic mouse model assessed as brain compound concentration causing reduction in brain Abeta42 levels. It is filed as functional, organism-based.
The subject of series [5] is Mus musculus. In words: Antialzheimer activity in YAC transgenic mouse model assessed as reduction in brain Abeta42 levels at 10 mg/kg, po measured after 7 hrs. It is filed as functional. Also on record: scale not given: the % may be the effect or the level left.
Series [6] in a line: Drug level in mouse plasma dosed for 4 weeks. It is filed as ADME, organism-based.
For series [7], the system named is Mus musculus. In words: Antialzheimer activity in transgenic hAPP mouse expressing Swedish and London mutations assessed as reduction in plaque area in brain hippocampus dosed for 6 months. It is filed as functional. Also on record: scale not given: the % may be the effect or the level left.
Series [8] relates to Mus musculus. In words: Antialzheimer activity in transgenic hAPP mouse expressing Swedish and London mutations assessed as reduction in plaque number in brain hippocampus dosed for 6 months. It is filed as functional. Also on record: scale not given: the % may be the effect or the level left.
In series [9] the test system is Mus musculus. In words: Antialzheimer activity in transgenic Alzheimer disease mouse model assessed as increase in recognition index at 375 ppm dosed for 10 months by object recognition memory test (reference value: 48.9%). It is filed as functional.
Series [10] deals with Mus musculus. In words: Antialzheimer activity in transgenic Alzheimer disease mouse model assessed as increase in recognition index at 125 ppm dosed for 10 months by object recognition memory test (reference value: 48.9%). It is filed as functional.
Series [11] can be described thus: Drug level in brain of Tg2576 mouse expressing human APP Swedish mutant at 60 mg/kg/day after 17 weeks. It is filed as ADME, organism-based. The following applies: read-out: Drug uptake.
The subject of series [12] is Mus musculus. In words: Brain penetration in mouse assessed as brain/plasma ratio at 100 or 300 mg/kg/day for 4 to 5 days. It is filed as ADME, organism-based. The conditions noted are these: in vivo.
For series [13], the system named is Mus musculus. In words: Antialzheimer activity in transgenic hAPP mouse expressing Swedish and London mutations assessed as reduction in plaque number in brain cortex dosed for 6 months. It is filed as functional. Also on record: scale not given: the % may be the effect or the level left.
In series [14] the test system is Mus musculus. In words: Antialzheimer activity in transgenic hAPP mouse expressing Swedish and London mutations assessed as reduction in plaque area in brain cortex dosed for 6 months. Also on record: scale not given: the % may be the effect or the level left. It is filed as functional.
A short description of series [15]: Drug level in mouse brain dosed for 4 weeks. The conditions noted are these: read-out: Drug uptake. It is filed as ADME, organism-based.

The structures appear in SMILES notation.

For `CC(C)(C)CC[C@H](CCC(F)(F)F)N1CCC(F)(F)[C@H](CC(=O)O)[C@H]1c1ccc(C(F)(F)F)cc1`, in the series with Mus musculus [1], the ED50 is 5 mg/kg. Further, the IC50 in series [2] stood at 0.6 µM. For the same compound, the figures for the EC50 in the series on Mus musculus [3] and with Mus musculus [4] were 3.7 µM and 1 µM, respectively. The Activity in the series on Mus musculus [5] is given as 84%.

Take `O=C(O)C1(c2ccc(-c3ccc(Cl)c(Cl)c3)c(F)c2)CC1`: the concentration at 672 h in series [6] turned out to be 580 µM; in series [15], 20 µM. Also, the Activity came to 42% in the series on Mus musculus [7]; 34% in the series with Mus musculus [8]; 64.1% in the series with Mus musculus [9]; 62.2% in the series on Mus musculus [10]; 28% with Mus musculus [13]; 32% in the series on Mus musculus [14]. Moreover, the concentration at 2856 h in series [11] was found to be 6.4 µM. In addition, the permeability with Mus musculus [12] worked out at 5%. In [2], the IC50 came to 40 µM.

The values above are taken from ChEMBL document CHEMBL2150877, “γ-Secretase modulators as potential disease modifying anti-Alzheimer's drugs” (J Med Chem, 2011).
